{"source": "patent US11058680B2", "about": "“Combinations of opioid/TLR4 antagonists and acetaminophen for use in the treatment of emotional pain and insomnia” (Allodynic Threapeutics, LLC, priority 2016, dated 2021)", "system": "patient with chronic migraines, lower back pain and anger with spouse", "experiment": "Example 9 case study", "assay_type": "in vivo, human", "settings": "naltrexone 5 mg twice daily for 14 months", "source_text": "For 30 years they and their retired spouse were always together."}
{"compound": "O=C1CC[C@@]2(O)[C@H]3Cc4ccc(O)c5c4[C@@]2(CCN3CC2CC2)[C@H]1O5", "note": "[naltrexone]", "values": [{"measurement": "lower back pain diminished by", "result": 90, "unit": "%"}, {"measurement": "migraine intensity and frequency lessened by", "result": 90, "unit": "%"}]}
